From US20240115589A1, “PHARMACEUTICAL COMPOSITION FOR PREVENTING CYTOKINE STORM” (KINKI UNIVERSITY, priority 2021, published 2024)

Key:
TNFα mRNA [1] = test: LPS-stimulated TNFα mRNA expression in mouse B cells (real time PCR); format: cell-based; conditions: then 10 μg/mL LPS 4 h, vs LPS-treated group
Procedure: The inhibitory effect of compounds on TNFα mRNA expression involved in cytokine storm was examined using mouse B cells.
(§1) Mouse B cells were pre-cultured with RPMI1640 medium for 1 day. After incubation, mouse B cells were treated with 10 μM mangiferin 8a, 10 μM norathyriol, 1 μM M9, and 1 μM M14 for 1 day. Then, 10 μg/mL LPS was added to mouse B cells and cultured for 4 h. After incubation, cells were collected, RNA was extracted, and TNFα mRNA expression was measured by real time PCR.
(§2) For controls, only 0.5% DMSO (diluted in PBS) used to dissolve the compounds was added. 10 μg/mL LPS administered is called the LPS-treated group, LPS and mangiferin 8a administered in combination is called the mangiferin 8a-treated group, LPS and norathyriol administered in combination is called the norathyriol group, LPS and M9 administered in combination is called the M9-treated group, LPS and M14 administered in combination is called the M14-treated group, respectively.

IL-6 mRNA [2] = test: LPS-stimulated IL-6 mRNA expression in mouse B cells (real time PCR); format: cell-based; conditions: then 10 μg/mL LPS 4 h, vs LPS-treated group
Procedure: as §1
The inhibitory effect of compounds on IL-6 mRNA expression involved in cytokine storm was examined using mouse B cells. The experimental procedure is the same as in Example 1.
as §2

TNFα mRNA [3] = test: LPS-stimulated TNFα mRNA expression in mouse macrophages (real time PCR); format: cell-based; conditions: then 10 μg/mL LPS 4 h, vs LPS-treated group
Procedure: The inhibitory effect of compounds on TNFα mRNA expression involved in cytokine storm was examined using mouse macrophages.
as §1, with “macrophages” for “B cells”
as §2

IL-6 mRNA [4] = test: LPS-stimulated IL-6 mRNA expression in mouse macrophages (real time PCR); format: cell-based; conditions: then 10 μg/mL LPS 4 h, vs LPS-treated group
Procedure: as §1, with “macrophages” for “B cells”
The inhibitory effect of compounds on IL-6 mRNA expression involved in cytokine storm was examined using mouse macrophages.
as §2, with “The experimental procedure is the same as in Example 3. […] For” for “For”

TNFα [5] = test: LPS-stimulated TNFα production in mouse B cells (ELISA); format: cell-based; conditions: culture supernatant, then 10 μg/mL LPS 2 days, control 15.13, LPS alone 296.31 pg/mL
Procedure: The inhibitory effect of compounds on TNFα production involved in cytokine storm was examined using mouse B cells.
(§3) Mouse B cells were pre-cultured with RPMI1640 medium for 1 day. After incubation, mouse B cells were treated with 10 μM mangiferin 8a, 10 μM norathyriol, 1 μM M9, and 1 μM M14 for 1 day. Then, 10 μg/mL LPS was added to mouse B cells and cultured for 2 days. After incubation, the culture supernatant was collected and TNFα production was determined by enzyme-linked immunosorbent assay (ELISA). This measurement was performed using a mouse TNFα ELISA kit (R&D).

IL-6 [6] = test: LPS-stimulated IL-6 production in mouse B cells (ELISA); format: cell-based; conditions: culture supernatant, then 10 μg/mL LPS 2 days, control 9.46, LPS alone 246.13 pg/mL
Procedure: The inhibitory effect of compounds on IL-6 production involved in cytokine storm was examined using mouse B cells.
as §3, with “IL-6” for “TNFα”, “IL-6 ELISAkit” for “TNFα ELISA kit”

TNFα [7] = test: LPS-stimulated TNFα production in mouse macrophages (ELISA); format: cell-based; conditions: culture supernatant, then 10 μg/mL LPS 2 days, control 24.11, LPS alone 421.13 pg/mL
Procedure: The inhibitory effect of compounds on TNFα production involved in cytokine storm was examined using mouse macrophages.
as §3, with “macrophages” for “B cells”

IL-6 [8] = test: LPS-stimulated IL-6 production in mouse macrophages (ELISA); format: cell-based; conditions: culture supernatant, then 10 μg/mL LPS 2 days, control 13.13, LPS alone 321.13 pg/mL
Procedure: The inhibitory effect of compounds on IL-6 production involved in cytokine storm was examined using mouse macrophages.
as §3, with “macrophages” for “B cells”, “IL-6” for “TNFα”

male C57BL/6J = test: Survival rate of mice treated with compound and LPS (lethality in cytokine storm); format: in vivo; conditions: C57BL/6J mice, 25 mg/kg LPS i.p. 5 min later, day 2, compared to LPS group
Procedure: Six-week-old male C57BL/6J (SHIMIZU Laboratory Supplies Co., Ltd.) were orally administered 50 mg/kg mangiferin 8a, 100 mg/kg norathyriol, 50 mg/kg M9, and 50 mg/kg M14. Five minutes later, 25 mg/kg LPS was administered intraperitoneally. The day of administration was set as day 0, and the survival rate was measured on day 2.
(§4) Those not receiving the compound and LPS are referred to as the control group, those receiving 25 mg/kg LPS are referred to as the LPS group, those receiving 50 mg/kg mangiferin 8a and 25 mg/kg LPS are referred to as the mangiferin 8a-treated group, those receiving 100 mg/kg norathyriol and 25 mg/kg LPS are referred to as the norathyriol-treated group, those receiving 50 mg/kg M9 and 25 mg/kg LPS are referred to as the M9-treated group, and those receiving 50 mg/kg M14 and 25 mg/kg LPS are referred to as the M14-treated group.
Referring to FIG. 9, the horizontal axis indicates compound treatment, and the vertical axis indicates survival rate (%).

TNFα [9] = test: Serum TNFα production in mice treated with compound and LPS (ELISA); format: in vivo; conditions: C57BL/6J mice, 25 mg/kg LPS i.p., serum 2 hours after LPS, control 1.55, LPS alone 10.28 ng/mL
Procedure: (§5) Six-week-old male C57BL/6J (Shimizu experimental material) was orally administered 100 mg/kg norathyriol, 50 mg/kg M9, and 50 mg/kg M14. Five minutes later, 25 mg/kg LPS was administered intraperitoneally. Serum was collected from mice 2 hours after LPS administration, and the amount of TNFα production involved in the cytokine storm was measured by enzyme-linked immunosorbent assay (ELISA). This measurement was performed using a mouse TNFα ELISA kit (R&D).
as §4, with “LPS” for “LPS group, those receiving 50 mg/kg mangiferin 8a and 25 mg/kg LPS are referred to as the mangiferin 8a-treated”

IL-6 [10] = test: Serum IL-6 production in mice treated with compound and LPS (ELISA); format: in vivo; conditions: C57BL/6J mice, 25 mg/kg LPS i.p., serum 2 hours after LPS, control 2.75, LPS alone 20.1 ng/mL
Procedure: as §5, with “IL-6” for “TNFα”
as §4, with “LPS” for “LPS group, those receiving 50 mg/kg mangiferin 8a and 25 mg/kg LPS are referred to as the mangiferin 8a-treated”

Structure (SMILES)	LPS-induced TNFα mRNA expression (ratio to GAPDH mRNA) (TNFα mRNA [1]; 1 μM compound 1 day)	LPS-induced IL-6 mRNA expression (ratio to GAPDH mRNA) (IL-6 mRNA [2]; 1 μM compound 1 day)	LPS-induced TNFα mRNA expression (ratio to GAPDH mRNA) (TNFα mRNA [3]; 1 μM compound 1 day)	LPS-induced IL-6 mRNA expression (ratio to GAPDH mRNA) (IL-6 mRNA [4]; 1 μM compound 1 day)	TNFα production (TNFα [5]; 1 μM compound 1 day)	IL-6 production (IL-6 [6]; 1 μM compound 1 day)	TNFα production (TNFα [7]; 1 μM compound 1 day)	IL-6 production (IL-6 [8]; 1 μM compound 1 day)	survival rate (male C57BL/6J; 50 mg/kg oral)	TNFα production in serum (TNFα [9]; 50 mg/kg oral)	IL-6 production in serum (IL-6 [10]; 50 mg/kg oral)	LPS-induced TNFα mRNA expression (ratio to GAPDH mRNA) (TNFα mRNA [1]; 10 μM compound 1 day)	LPS-induced IL-6 mRNA expression (ratio to GAPDH mRNA) (IL-6 mRNA [2]; 10 μM compound 1 day)	LPS-induced TNFα mRNA expression (ratio to GAPDH mRNA) (TNFα mRNA [3]; 10 μM compound 1 day)	LPS-induced IL-6 mRNA expression (ratio to GAPDH mRNA) (IL-6 mRNA [4]; 10 μM compound 1 day)	TNFα production (TNFα [5]; 10 μM compound 1 day)	IL-6 production (IL-6 [6]; 10 μM compound 1 day)	TNFα production (TNFα [7]; 10 μM compound 1 day)	IL-6 production (IL-6 [8]; 10 μM compound 1 day)	also measured
CCCC(=O)OC[C@H]1O[C@@H](c2c(O)cc3oc4cc(O)c(O)cc4c(=O)c3c2O)[C@H](OC(=O)CCC)[C@@H](OC(=O)CCC)[C@@H]1OC(=O)CCC [M14, 2′,3′,4′,6′-tetra-O-butyrylmangiferin]	decrease in LPS-induced TNFα mRNA expression	decrease in LPS-induced IL-6 mRNA expression	decrease in LPS-induced TNFα mRNA expression	decrease in LPS-induced IL-6 mRNA expression	46.13 pg/mL	45.13 pg/mL	54.13 pg/mL	45.13 pg/mL	significantly reduced the decrease in survival	5.2 ng/mL	14.26 ng/mL	–	–	–	–	–	–	–	–	–
O=c1c2cc(O)c(O)cc2oc2cc(O)cc(O)c12 [norathyriol, 1,3,6,7-tetrahydroxyxanthone]	–	–	–	–	–	–	–	–	–	–	–	decrease in LPS-induced TNFα mRNA expression	decrease in LPS-induced IL-6 mRNA expression	decrease in LPS-induced TNFα mRNA expression	decrease in LPS-induced IL-6 mRNA expression	64.13 pg/mL	56.13 pg/mL	68.13 pg/mL	64.13 pg/mL	survival rate (male C57BL/6J; 100 mg/kg oral): significantly reduced the decrease in survival; TNFα production in serum (TNFα [9]; 100 mg/kg oral): 2.71 ng/mL; IL-6 production in serum (IL-6 [10]; 100 mg/kg oral): 11.37 ng/mL
CCC(=O)OC[C@H]1O[C@@H](c2c(O)cc3oc4cc(O)c(O)cc4c(=O)c3c2OC(=O)CC)[C@H](OC(=O)CC)[C@@H](OC(=O)CC)[C@@H]1OC(=O)CC [mangiferin 8a, 1,2′,3′,4′,6′-penta-O-propionylmangiferin]	–	–	–	–	–	–	–	–	significantly reduced the decrease in survival	–	–	decrease in LPS-induced TNFα mRNA expression	decrease in LPS-induced IL-6 mRNA expression	decrease in LPS-induced TNFα mRNA expression	decrease in LPS-induced IL-6 mRNA expression	59.31 pg/mL	54.13 pg/mL	65.13 pg/mL	69.16 pg/mL	–
CCC(=O)OC[C@H]1O[C@@H](c2c(O)cc3oc4cc(O)c(O)cc4c(=O)c3c2O)[C@H](OC(=O)CC)[C@@H](OC(=O)CC)[C@@H]1OC(=O)CC [M9, 2′,3′,4′,6′-tetra-O-propionylmangiferin]	decrease in LPS-induced TNFα mRNA expression	decrease in LPS-induced IL-6 mRNA expression	decrease in LPS-induced TNFα mRNA expression	decrease in LPS-induced IL-6 mRNA expression	55.13 pg/mL	45.12 pg/mL	58.13 pg/mL	49.46 pg/mL	significantly reduced the decrease in survival	5.68 ng/mL	15.15 ng/mL	–	–	–	–	–	–	–	–	–
